Experimental data: patent US20100298141A1, “SUBSTITUTED PYRIDINE N-OXIDE HERBICIDES” (E. I. DU PONT DE NEMOURS AND COMPANY, priority 2007, published 2010)

Assays:
woolly cupgrass = experiment: Test C pre-/postemergence test; format: in vivo, Eriochloa villosa; settings: for Plant response rating, Cupgrass, Woolly: 31 g ai/ha, scale 0 to 100 (0 no effect, 100 complete control)
In short: (§1)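 Test chemicals were formulated with surfactant in a non-phytotoxic solvent and sprayed both on freshly planted seeds (preemergence) and on 1- to 4-leaf plants of 2–18 cm (postemergence). Flooded-paddy pots received compound directly into 3 cm of standing water, maintained for the test.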

downy brome = experiment: Test C pre-/postemergence test; format: in vivo, Bromus tectorum; settings: for Plant response rating, Bromegrass, Downy: 31 g ai/ha, scale 0 to 100 (0 no effect, 100 complete control)
In short: as §1

morningglory = experiment: Test A pre-/postemergence greenhouse test; format: in vivo, Ipomoea spp.; settings: for Plant response rating, Morningglory: 0 to 100 scale where 0 is no effect and 100 is complete control; for Morningglory plant response rating: 0 to 100 scale
In short: (§2)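 Untreated controls served as the reference for visual injury ratings taken about ten days after spraying. The non-phytotoxic solvent/surfactant formulation was applied preemergence to seeded loam and sand and postemergence to plants two to ten cm high.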

green foxtail = experiment: Test C pre-/postemergence test; format: in vivo, Setaria viridis; settings: for Plant response rating, Foxtail, Green: 31 g ai/ha, scale 0 to 100 (0 no effect, 100 complete control)
In short: as §1

yellow nutsedge = experiment: Test C pre-/postemergence test; format: in vivo, Cyperus esculentus; settings: for Plant response rating, Nutsedge, Yellow: 31 g ai/ha, scale 0 to 100 (0 no effect, 100 complete control)
In short: as §1

blackgrass = experiment: Test C pre-/postemergence test; format: in vivo, Alopecurus myosuroides; settings: for Plant response rating, Blackgrass: 31 g ai/ha, scale 0 to 100 (0 no effect, 100 complete control)
In short: as §1

wild oat = experiment: Test C pre-/postemergence test; format: in vivo, Avena fatua; settings: for Plant response rating, Oat, Wild: 31 g ai/ha, scale 0 to 100 (0 no effect, 100 complete control)
In short: as §1

kochia = experiment: Test C pre-/postemergence test; format: in vivo, Kochia scoparia; settings: for Plant response rating, Kochia: 31 g ai/ha, scale 0 to 100 (0 no effect, 100 complete control)
In short: as §1

lambsquarters = experiment: Test C pre-/postemergence test; format: in vivo, Chenopodium album; settings: for Plant response rating, Lambsquarters: 31 g ai/ha, scale 0 to 100 (0 no effect, 100 complete control)
In short: as §1

duck salad = experiment: Test C flooded paddy test; format: in vivo, Heteranthera limosa; settings: Flood
In short: (§3)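 Greenhouse pots flooded to 3 cm above soil at time of treatment received compound via the water, which stayed at that level.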

cocklebur = experiment: Test C pre-/postemergence test; format: in vivo, Xanthium strumarium; settings: for Plant response rating, Cocklebur: 31 g ai/ha, scale 0 to 100 (0 no effect, 100 complete control)
In short: as §1

soybean = experiment: Test C pre-/postemergence test; format: in vivo, Glycine max; settings: for Plant response rating, Soybean: 31 g ai/ha, scale 0 to 100 (0 no effect, 100 complete control)
In short: as §1

catchweed bedstraw = experiment: Test C pre-/postemergence test; format: in vivo, Galium aparine; settings: for Plant response rating, Galium: 31 g ai/ha, scale 0 to 100 (0 no effect, 100 complete control)
In short: as §1

redroot pigweed = experiment: Test A pre-/postemergence greenhouse test; format: in vivo, Amaranthus retroflexus; settings: for Plant response rating, Pigweed: 0 to 100 scale where 0 is no effect and 100 is complete control; for Pigweed plant response rating: 0 to 100 scale
In short: as §2

rice = experiment: Test C flooded paddy test; format: in vivo, Oryza sativa; settings: Flood
In short: as §3

bermudagrass = experiment: Test C pre-/postemergence test; format: in vivo, Cynodon dactylon; settings: for Plant response rating, Bermudagrass: 31 g ai/ha
In short: as §1

[1] = 62 g ai/ha, Preemergence, scale 0 to 100
[2] = 125 g ai/ha, preemergence, scale 0 (no effect) to 100 (complete control)
[3] = preemergence, 250 g ai/ha, scale 0 (no effect) to 100 (complete control)
[4] = Postemergence, 500 g ai/ha, 0 is no effect, 100 is complete control
[5] = Preemergence, 125 g ai/ha, 0 no effect, 100 complete control
[6] = Preemergence, 500 g ai/ha, 0 no effect, 100 complete control
[7] = 62 g ai/ha, scale 0 to 100 (0 no effect, 100 complete control)
[8] = 250 g ai/ha, scale 0 to 100, 0 no effect, 100 complete control, 13 to 15 days
[9] = 62 g ai/ha, Preemergence, scale 0 to 100 (0 no effect, 100 complete control)
[10] = Preemergence, scale 0 to 100 (0 no effect, 100 complete control)
[11] = preemergence, 125 g ai/ha, scale 0 (no effect) to 100 (complete control)
[12] = Postemergence, 125 g ai/ha, 0 is no effect, 100 is complete control
[13] = 31 g ai/ha, scale 0 to 100 (0 no effect, 100 complete control)
[14] = 62 g ai/ha, scale 0 to 100, 0 no effect, 100 complete control, 13 to 15 days
[15] = 125 g ai/ha, scale 0 to 100, 0 no effect, 100 complete control, 13 to 15 days

CCc1cc[n+]([O-])c([S+]([O-])Cc2c(C(F)(F)F)nn(C)c2OC(F)F)c1 (centres unmarked) [Compound 101]
80: Cupgrass, Woolly plant response rating (woolly cupgrass; [1]) | Morningglory plant response rating (morningglory; [5]) | Plant response rating, Lambsquarters (lambsquarters; Preemergence) | Plant response rating, Ducksalad (duck salad; [8])
90: Bromegrass, Downy plant response rating (downy brome; [2]) | Blackgrass plant response rating (blackgrass; [3]) | Oat, Wild plant response rating (wild oat; [1]) | Oat, Wild plant response rating (wild oat; [2]) | Pigweed plant response rating (redroot pigweed; [4])
30: Blackgrass plant response rating (blackgrass; [1]) | Kochia plant response rating (kochia; [1])
15: Cocklebur plant response rating (cocklebur; [3])
50: Plant response rating, Oat, Wild (wild oat; Preemergence) | Galium plant response rating (catchweed bedstraw; [1])
45: Bromegrass, Downy plant response rating (downy brome; [1])
70: Plant response rating, Morningglory (morningglory; Postemergence, 125 g ai/ha) | Blackgrass plant response rating (blackgrass; [2]) | Plant response rating, Pigweed (redroot pigweed; Postemergence, 125 g ai/ha)
55: Plant response rating, Bermudagrass (bermudagrass; [10])
40: Plant response rating, Cupgrass, Woolly (woolly cupgrass; Preemergence) | Plant response rating, Bromegrass, Downy (downy brome; Preemergence)
0: Plant response rating, Nutsedge, Yellow (yellow nutsedge; Preemergence) | Plant response rating, Blackgrass (blackgrass; Preemergence) | Plant response rating, Kochia (kochia; Preemergence) | Plant response rating, Ducksalad (duck salad; [7]) | Cocklebur plant response rating (cocklebur; [1]) | Plant response rating, Cocklebur (cocklebur; Preemergence) | Plant response rating, Soybean (soybean; Preemergence) | Plant response rating, Galium (catchweed bedstraw; Preemergence) | Plant response rating, Rice (rice; [7])
98: Foxtail, Green plant response rating (green foxtail; [2]) | Oat, Wild plant response rating (wild oat; [3]) | Galium plant response rating (catchweed bedstraw; [2])
85: Cupgrass, Woolly plant response rating (woolly cupgrass; [2]) | Plant response rating, Foxtail, Green (green foxtail; Preemergence) | Kochia plant response rating (kochia; [2]) | Soybean plant response rating (soybean; [3]) | Bermudagrass plant response rating (bermudagrass; [9])
75: Soybean plant response rating (soybean; [2]) | Plant response rating, Rice (rice; [8])
95: Cupgrass, Woolly plant response rating (woolly cupgrass; [3]) | Foxtail, Green plant response rating (green foxtail; [1])
60: Nutsedge, Yellow plant response rating (yellow nutsedge; [2]) | Soybean plant response rating (soybean; [1])
20: Nutsedge, Yellow plant response rating (yellow nutsedge; [1])
10: Cocklebur plant response rating (cocklebur; [2])
100: Bromegrass, Downy plant response rating (downy brome; [3]) | Morningglory plant response rating (morningglory; [4]) | Morningglory plant response rating (morningglory; [6]) | Foxtail, Green plant response rating (green foxtail; [3]) | Nutsedge, Yellow plant response rating (yellow nutsedge; [3]) | Kochia plant response rating (kochia; [3]) | Lambsquarters plant response rating (lambsquarters; [1]) | Lambsquarters plant response rating (lambsquarters; [2]) | Lambsquarters plant response rating (lambsquarters; [3]) | Galium plant response rating (catchweed bedstraw; [3]) | Pigweed plant response rating (redroot pigweed; [5]) | Pigweed plant response rating (redroot pigweed; [6]) | Bermudagrass plant response rating (bermudagrass; [2]) | Bermudagrass plant response rating (bermudagrass; [3])

Cn1nc(C(F)(F)F)c(C[S+]([O-])c2cc(C(F)(F)F)cc[n+]2[O-])c1Cl (racemic) [Compound 34]
100: Plant response rating (0 to 100), Foxtail, Green (green foxtail; Preemergence, 250 g ai/ha) | Plant response rating (0 to 100), Galium (catchweed bedstraw; Preemergence, 250 g ai/ha) | Pigweed plant response rating (redroot pigweed; [5]) | Plant response rating, Pigweed (redroot pigweed; Preemergence, 500 g ai/ha) | Bermudagrass plant response rating (bermudagrass; [9]) | Plant response rating (0 to 100), Bermudagrass (bermudagrass; Preemergence, 250 g ai/ha) | Bermudagrass plant response rating (bermudagrass; [11])
0: Bromegrass, Downy plant response rating (downy brome; [1]) | Plant response rating, Bromegrass, Downy (downy brome; Preemergence) | Morningglory plant response rating (morningglory; [12]) | Plant response rating, Oat, Wild (wild oat; Preemergence) | Kochia plant response rating (kochia; [1]) | Plant response rating, Kochia (kochia; Preemergence) | Plant response rating, Lambsquarters (lambsquarters; Preemergence) | Plant response rating, Ducksalad (duck salad; [13]) | Cocklebur plant response rating (cocklebur; [1]) | Plant response rating, Cocklebur (cocklebur; Preemergence) | Cocklebur plant response rating (cocklebur; [11]) | Soybean plant response rating (soybean; [1]) | Plant response rating, Soybean (soybean; Preemergence) | Plant response rating, Galium (catchweed bedstraw; Preemergence) | Plant response rating, Rice (rice; [13]) | Plant response rating, Rice (rice; [14]) | Plant response rating, Rice (rice; [15])
20: Plant response rating (0 to 100), Bromegrass, Downy (downy brome; Preemergence, 250 g ai/ha) | Bromegrass, Downy plant response rating (downy brome; [11])
10: Plant response rating, Foxtail, Green (green foxtail; Preemergence)
40: Oat, Wild plant response rating (wild oat; [1]) | Plant response rating, Rice (rice; [8])
65: Plant response rating (0 to 100), Blackgrass (blackgrass; Preemergence, 250 g ai/ha)
50: Morningglory plant response rating (morningglory; [5]) | Foxtail, Green plant response rating (green foxtail; [1]) | Blackgrass plant response rating (blackgrass; [11]) | Lambsquarters plant response rating (lambsquarters; [1])
30: Morningglory plant response rating (morningglory; [4]) | Blackgrass plant response rating (blackgrass; [1]) | Plant response rating, Blackgrass (blackgrass; Preemergence) | Plant response rating (0 to 100), Cocklebur (cocklebur; Preemergence, 250 g ai/ha)
85: Plant response rating, Ducksalad (duck salad; [8])
80: Plant response rating, Morningglory (morningglory; Preemergence, 500 g ai/ha) | Plant response rating, Ducksalad (duck salad; [15])
60: Pigweed plant response rating (redroot pigweed; [12])
35: Cupgrass, Woolly plant response rating (woolly cupgrass; [1]) | Plant response rating, Cupgrass, Woolly (woolly cupgrass; Preemergence)
70: Nutsedge, Yellow plant response rating (yellow nutsedge; [1]) | Plant response rating, Nutsedge, Yellow (yellow nutsedge; Preemergence) | Pigweed plant response rating (redroot pigweed; [4])
75: Plant response rating (0 to 100), Cupgrass, Woolly (woolly cupgrass; Preemergence, 250 g ai/ha) | Plant response rating, Ducksalad (duck salad; [14]) | Plant response rating, Bermudagrass (bermudagrass; [10])
